The values that follow are results of earlier work, collected in US20240165107A1 (Cipla Limited, priority 2021, published 2024).

Like-named read-outs stand apart in the source and are kept apart here.

One series concerns the target 5-HT2B receptors (Homo sapiens, UniProt P41595). The conditions noted are these: antagonist.
For series [1], the target named is T1, serotonin 5-HT2C receptors (Homo sapiens, UniProt P28335).
T1 sequence (P28335 33-458): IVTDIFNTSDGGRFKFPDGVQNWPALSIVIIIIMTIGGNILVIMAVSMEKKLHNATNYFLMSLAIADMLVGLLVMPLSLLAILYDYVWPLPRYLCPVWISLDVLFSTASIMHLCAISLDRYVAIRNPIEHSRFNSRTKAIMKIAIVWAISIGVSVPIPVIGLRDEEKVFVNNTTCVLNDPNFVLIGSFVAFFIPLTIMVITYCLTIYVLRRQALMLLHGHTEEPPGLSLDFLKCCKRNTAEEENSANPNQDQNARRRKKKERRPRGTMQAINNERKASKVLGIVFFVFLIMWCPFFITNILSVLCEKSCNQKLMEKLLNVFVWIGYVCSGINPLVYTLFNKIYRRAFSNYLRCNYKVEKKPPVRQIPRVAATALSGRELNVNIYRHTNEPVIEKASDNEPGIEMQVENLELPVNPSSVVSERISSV

For another series, the target named is 5-HT2A receptors (Homo sapiens, UniProt P28223). Conditions: antagonist.
Chain of 5-HT2A receptors (P28223 whole entry): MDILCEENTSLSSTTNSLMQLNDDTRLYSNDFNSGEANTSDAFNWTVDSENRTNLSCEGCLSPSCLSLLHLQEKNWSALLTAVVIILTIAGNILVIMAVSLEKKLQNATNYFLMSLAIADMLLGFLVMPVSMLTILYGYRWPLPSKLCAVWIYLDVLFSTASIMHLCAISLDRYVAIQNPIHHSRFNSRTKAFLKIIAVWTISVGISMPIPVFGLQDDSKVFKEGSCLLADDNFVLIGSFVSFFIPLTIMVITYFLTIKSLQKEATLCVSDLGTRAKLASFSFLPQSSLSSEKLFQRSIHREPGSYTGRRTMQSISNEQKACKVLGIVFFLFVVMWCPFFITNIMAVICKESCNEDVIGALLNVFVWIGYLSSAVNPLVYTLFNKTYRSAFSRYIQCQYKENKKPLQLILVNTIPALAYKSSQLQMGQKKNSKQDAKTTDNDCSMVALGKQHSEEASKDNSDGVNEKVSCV
For series [2] the following is noted: dogs; immediate release cariprazine capsules.
In series [3] the target is T2, alA- adrenergic receptors (Homo sapiens, UniProt P35348).
T2 sequence (P35348 1-466): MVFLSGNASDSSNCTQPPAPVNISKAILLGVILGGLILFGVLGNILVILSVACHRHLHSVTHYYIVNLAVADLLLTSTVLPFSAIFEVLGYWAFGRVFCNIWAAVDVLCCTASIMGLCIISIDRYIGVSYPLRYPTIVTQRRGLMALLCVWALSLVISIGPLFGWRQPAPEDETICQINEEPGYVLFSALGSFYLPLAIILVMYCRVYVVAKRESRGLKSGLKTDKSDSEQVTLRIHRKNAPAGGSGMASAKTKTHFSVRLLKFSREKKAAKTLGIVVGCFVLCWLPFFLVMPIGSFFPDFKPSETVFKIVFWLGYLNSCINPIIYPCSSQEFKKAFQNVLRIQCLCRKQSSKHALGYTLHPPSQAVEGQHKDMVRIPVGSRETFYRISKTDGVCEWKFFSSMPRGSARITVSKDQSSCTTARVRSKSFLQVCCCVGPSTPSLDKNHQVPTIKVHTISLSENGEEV

The subject of series [4] is cholinergic muscarinic receptors.
For series [5] the following is noted: rats; immediate release cariprazine capsules.

Chain of 5-HT2B receptors (P41595 whole entry): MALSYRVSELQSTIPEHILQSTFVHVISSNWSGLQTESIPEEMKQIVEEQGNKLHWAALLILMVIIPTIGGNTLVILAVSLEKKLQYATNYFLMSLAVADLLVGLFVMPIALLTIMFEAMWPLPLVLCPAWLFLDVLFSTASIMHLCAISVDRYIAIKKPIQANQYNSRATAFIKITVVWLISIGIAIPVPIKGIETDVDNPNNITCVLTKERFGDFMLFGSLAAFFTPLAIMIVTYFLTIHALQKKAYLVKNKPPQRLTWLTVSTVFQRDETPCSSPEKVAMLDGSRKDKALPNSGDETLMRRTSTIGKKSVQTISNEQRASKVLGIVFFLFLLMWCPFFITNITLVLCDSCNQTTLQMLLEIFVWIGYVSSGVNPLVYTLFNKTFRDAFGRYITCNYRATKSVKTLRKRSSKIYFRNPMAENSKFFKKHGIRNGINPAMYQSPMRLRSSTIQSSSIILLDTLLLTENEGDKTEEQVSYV

Turning to `CN(C)C(=O)N[C@H]1CC[C@H](CCN2CCN(c3cccc(Cl)c3Cl)CC2)CC1` [Cariprazine, trans-N-{4-[2-[4-(2,3-dichlorophenyl)piperazine-1-yl]ethyl]cyclohexyl}-N′,N′-dimethylurea], the binding affinity entry was “high” on 5-HT2B receptors, “lower binding affinity” in series [1], “moderate” on 5-HT2A receptors and “lower binding affinity” in series [3]. Further, the oral absolute bioavailability is reported as 64-80% in series [2] and 52-63% in series [5]. The affinity result in series [4] is reported as “no appreciable affinity”.
